How the values were obtained:
Type in all cases: functional
Conditions in all cases: read-out: DIZ
Aspergillus niger [1] = assay: Antifungal activity against Aspergillus niger at 0.03 mol/L after 2 to 4 days by paper disc method
Penicillium citrinum [2] = assay: Antifungal activity against Penicillium citrinum at 0.13 mol/L after 2 to 4 days by paper disc method
Penicillium citrinum [3] = assay: Antifungal activity against Penicillium citrinum at 0.06 mol/L after 2 to 4 days by paper disc method
Penicillium citrinum [4] = assay: Antifungal activity against Penicillium citrinum at 0.03 mol/L after 2 to 4 days by paper disc method
Escherichia coli [5] = assay: Antibacterial activity against Escherichia coli at 0.06 mol/L after 12 to 24 hrs by paper disc method
Escherichia coli [6] = assay: Antibacterial activity against Escherichia coli at 0.13 mol/L after 12 to 24 hrs by paper disc method
Staphylococcus aureus [7] = assay: Antibacterial activity against Staphylococcus aureus at 0.06 mol/L after 12 to 24 hrs by paper disc method
Aspergillus niger [8] = assay: Antifungal activity against Aspergillus niger at 0.13 mol/L after 2 to 4 days by paper disc method
Staphylococcus aureus [9] = assay: Antibacterial activity against Staphylococcus aureus at 0.13 mol/L after 12 to 24 hrs by paper disc method
Escherichia coli [10] = assay: Antibacterial activity against Escherichia coli at 0.03 mol/L after 12 to 24 hrs by paper disc method
Staphylococcus aureus [11] = assay: Antibacterial activity against Staphylococcus aureus at 0.25 mol/L after 12 to 24 hrs by paper disc method
Penicillium citrinum [12] = assay: Antifungal activity against Penicillium citrinum at 0.25 mol/L after 2 to 4 days by paper disc method
Escherichia coli [13] = assay: Antibacterial activity against Escherichia coli at 0.25 mol/L after 12 to 24 hrs by paper disc method
Aspergillus niger [14] = assay: Antifungal activity against Aspergillus niger at 0.06 mol/L after 2 to 4 days by paper disc method
Staphylococcus aureus [15] = assay: Antibacterial activity against Staphylococcus aureus at 0.03 mol/L after 12 to 24 hrs by paper disc method
Aspergillus niger [16] = assay: Antifungal activity against Aspergillus niger at 0.25 mol/L after 2 to 4 days by paper disc method

SMILES	zone of inhibition at 30000 µM (Aspergillus niger [1]) [mm]	zone of inhibition at 130000 µM (Penicillium citrinum [2]) [mm]	zone of inhibition at 60000 µM (Penicillium citrinum [3]) [mm]	zone of inhibition at 30000 µM (Penicillium citrinum [4]) [mm]	zone of inhibition at 60000 µM (Escherichia coli [5]) [mm]	zone of inhibition at 130000 µM (Escherichia coli [6]) [mm]	zone of inhibition at 60000 µM (Staphylococcus aureus [7]) [mm]	zone of inhibition at 130000 µM (Aspergillus niger [8]) [mm]	zone of inhibition at 130000 µM (Staphylococcus aureus [9]) [mm]	zone of inhibition at 30000 µM (Escherichia coli [10]) [mm]	zone of inhibition at 250000 µM (Staphylococcus aureus [11]) [mm]	zone of inhibition at 250000 µM (Penicillium citrinum [12]) [mm]	zone of inhibition at 250000 µM (Escherichia coli [13]) [mm]	zone of inhibition at 60000 µM (Aspergillus niger [14]) [mm]	zone of inhibition at 30000 µM (Staphylococcus aureus [15]) [mm]	zone of inhibition at 250000 µM (Aspergillus niger [16]) [mm]
COc1ccc(/C=C/C=N/[C@@H](CC(C)C)C(=O)O)cc1	9.7	12	10	12	9.3	14	8	16	8	8	10.8	17.7	13	10.5	9.7	19
O=C(O)[C@H](Cc1ccccc1)/N=C/C=C/c1ccc(Cl)cc1	12.3	23.2	21	18.3	19	26	13.3	19.7	29	9.2	33	35	19.5	21	9	26
COc1ccc(/C=C/C=N/[C@@H](Cc2ccccc2)C(=O)O)cc1	18.3	19.7	10.5	14	8	13.8	8	13	8.3	13.2	12	24.7	12.3	10.8	8	19
O=C(O)[C@H](Cc1ccc(O)cc1)/N=C/C=C/c1ccccc1	8	11.5	11	12.3	8	19.5	8	18.7	11.5	12	14.2	12	31.3	12.3	8	12
O=C/C=C/c1ccccc1 [CINNAMALDEHYDE]	8	28.7	15	12.2	11	11	8	22.3	9	8	10.5	29.7	29.5	16	8	26.7
CC(/N=C/C=C/c1ccccc1)C(=O)O (configuration not stated)	8	10.3	9.3	12.3	8	8	8	8.3	8	8	8	8	11	8	8	9.7
COc1ccc(/C=C/C=N/[C@@H](CCC(=O)O)C(=O)O)cc1	8.8	25.3	13.3	11.5	11.3	11.7	8.3	20.3	8	8	8.3	20.7	18.7	13.2	8	23.2
